# Assay results as given in PMC5431558, “Expression proteomics study to determine metallodrug targets and optimal drug combinations” (Scientific Reports, 2017).
# Biological target: T1, MAT2A (S-adenosylmethionine synthase isoform type-2) (Homo sapiens, UniProt P31153)
# T1 construct: Recombinant human MAT2A (Addgene plasmid #53648), expressed in E. coli BL21 (DE3) Rosetta
# Assay: MAT2A enzymatic assay with pre-incubation, phosphate colorimetric readout
# Assay type: biochemical
# T1 sequence (P31153 whole entry, canonical isoform): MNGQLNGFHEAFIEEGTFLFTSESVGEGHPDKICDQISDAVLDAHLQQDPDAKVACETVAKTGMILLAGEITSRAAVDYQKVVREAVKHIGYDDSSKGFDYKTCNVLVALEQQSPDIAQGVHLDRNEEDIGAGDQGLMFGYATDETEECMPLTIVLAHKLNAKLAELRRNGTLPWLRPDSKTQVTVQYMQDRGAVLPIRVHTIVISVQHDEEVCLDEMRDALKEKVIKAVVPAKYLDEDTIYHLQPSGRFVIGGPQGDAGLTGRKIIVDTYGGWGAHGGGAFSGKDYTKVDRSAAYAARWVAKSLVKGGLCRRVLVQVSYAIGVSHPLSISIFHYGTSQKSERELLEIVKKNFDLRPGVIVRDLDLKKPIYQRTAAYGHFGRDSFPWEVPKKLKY
smiles,measurement,value
C1N2CN3CN1CP(C2)C3.Cc1ccccc1.[Cl][Ru][Cl] [RAPTA-T],IC50,107 ± 13 µM
